Measured values taken from patent US9902709B2, “Polysubstituted pyridine compound, preparation method, use and pharmaceutical composition” (PEKING UNIVERSITY FOUNDER GROUP CO., LTD., priority 2014, dated 2018).

Tests used:
[1] = test system: human renal cancer 786-O transplantation; assay: Effect on tumor weight of human renal cancer 786-O transplantation nude mice (Comparative Experimental Example 1); format: in vivo; details: QD × 14 days, sorafenib as p-toluenesulfonate, FD-1210005 free form
Text: Comparative Experimental Example 1
The well grown 786-O solid tumor was cut into a mass of an average volume of about 1 mm^3 under aseptic conditions, and was used to inoculate nude mouse at axillary cavity of right forelimb subcutaneously via a trocar. The tumor growth state was observed regularly until the tumor grew into a volume of 250˜550 mm^3.
Animals with tumors of a too large or too small volume and an irregular shape were discarded. Tumor-bearing mice with a tumor volume of 250˜550 mm^3 in a good state were selected, 48 mice in total, and were divided into 6 groups, which were 1 solvent control group, 3 positive control groups, and 2 test sample groups. Both the positive control group and the test sample group were administered intragastrically once a day; the solvent control group was administered with 12.5% ethanol & 12.5% water solution of polyoxyethylene castor oil once a day; intragastrical volume was 10 mL/kg.
In the period of administration, tumor diameter was measured twice every week, tumor volume was calculated, and animal body weight was recorded. Animal state was observed when administered, and abnormal state was recorded.
Animal was sacrificed with CO2, and tumor was peeled off, weighed, and photographed. Animal was subjected to gross anatomy, and organs were observed by eyes to find if they were normal or not.
Observation Indexes: Tumor weight inhibiting rate (IR)=(WC−WT)/WC
Wherein WC and WT represented the average tumor weight of solvent control group and the average tumor weight of drug administration group, respectively.
Experimental data was subjected to calculation and relevant statistic processing by Microsoft Office Excel 2003 software. Unless otherwise specified, data was represented as Mean±Standard Error (Mean±S.E), and t-test is used in the comparison between two groups.

HCT116 xenograft = assay: Tumor-inhibiting effect on HCT116 xenograft tumor-bearing mice (Experimental Example 5); format: in vivo, Balb/c nude mice; details: QD × 14 day, free form; for TGI: from tumor weight
Method: HCT116 cells were cultured in McCoy's 5a culture medium containing inactivated 10% fetal bovine serum, 100 Um′ penicillin and 100 μg/ml streptomycin as well as 2 mM glutamine in an incubator at 37° C., 5% CO2. During cell culture, the initial concentration was 5×10^5 cells/ml, and the cells were separated into other bottles every 3 to 4 days when the cells reached a cell density of 100%. The tumor cells in logarithmic growth phase were used in tumor inoculation in vivo.
Balb/c nude mice was inoculated subcutaneously at right lateral thorax with HCT116 tumor cells re-suspended in PBS at 1.0×10^7 cells/0.1 ml. When the tumor grew into a volume of 800 mm^3, the animal was sacrificed and under aseptic conditions, tumor was peeled off. The well grown tumor tissues were cut into tumor mass with a size of 2×2×2 mm^3, and then were used to inoculate animal at right lateral thorax subcutaneously. 60 animals were inoculated. When the tumor grew into a volume of about 110 mm^3, the mice were grouped and administered, 5 groups in total, 8 mice per group.
The volume of tumor was measured by using Vernier caliper twice a week. The long diameter and short diameter of tumor were measured. The volume was calculated by the formula: volume=0.5× long diameter×short diameter^2. After the final measurement, the animal was sacrificed and the tumor was peeled off and weighed. Based on the tumor weight, tumor growth-inhibiting rate (TGI) was calculated. […] When the assay was finished, the experimental animal was subjected to euthanasia.

VEGFR2 = VEGFR2 (Homo sapiens (Human), UniProt P35968); assay: Inhibitory activity of VEGFR2 kinase (HTRF KinEASE-TK kit); format: biochemical
Chain of VEGFR2 (P35968 20-1356): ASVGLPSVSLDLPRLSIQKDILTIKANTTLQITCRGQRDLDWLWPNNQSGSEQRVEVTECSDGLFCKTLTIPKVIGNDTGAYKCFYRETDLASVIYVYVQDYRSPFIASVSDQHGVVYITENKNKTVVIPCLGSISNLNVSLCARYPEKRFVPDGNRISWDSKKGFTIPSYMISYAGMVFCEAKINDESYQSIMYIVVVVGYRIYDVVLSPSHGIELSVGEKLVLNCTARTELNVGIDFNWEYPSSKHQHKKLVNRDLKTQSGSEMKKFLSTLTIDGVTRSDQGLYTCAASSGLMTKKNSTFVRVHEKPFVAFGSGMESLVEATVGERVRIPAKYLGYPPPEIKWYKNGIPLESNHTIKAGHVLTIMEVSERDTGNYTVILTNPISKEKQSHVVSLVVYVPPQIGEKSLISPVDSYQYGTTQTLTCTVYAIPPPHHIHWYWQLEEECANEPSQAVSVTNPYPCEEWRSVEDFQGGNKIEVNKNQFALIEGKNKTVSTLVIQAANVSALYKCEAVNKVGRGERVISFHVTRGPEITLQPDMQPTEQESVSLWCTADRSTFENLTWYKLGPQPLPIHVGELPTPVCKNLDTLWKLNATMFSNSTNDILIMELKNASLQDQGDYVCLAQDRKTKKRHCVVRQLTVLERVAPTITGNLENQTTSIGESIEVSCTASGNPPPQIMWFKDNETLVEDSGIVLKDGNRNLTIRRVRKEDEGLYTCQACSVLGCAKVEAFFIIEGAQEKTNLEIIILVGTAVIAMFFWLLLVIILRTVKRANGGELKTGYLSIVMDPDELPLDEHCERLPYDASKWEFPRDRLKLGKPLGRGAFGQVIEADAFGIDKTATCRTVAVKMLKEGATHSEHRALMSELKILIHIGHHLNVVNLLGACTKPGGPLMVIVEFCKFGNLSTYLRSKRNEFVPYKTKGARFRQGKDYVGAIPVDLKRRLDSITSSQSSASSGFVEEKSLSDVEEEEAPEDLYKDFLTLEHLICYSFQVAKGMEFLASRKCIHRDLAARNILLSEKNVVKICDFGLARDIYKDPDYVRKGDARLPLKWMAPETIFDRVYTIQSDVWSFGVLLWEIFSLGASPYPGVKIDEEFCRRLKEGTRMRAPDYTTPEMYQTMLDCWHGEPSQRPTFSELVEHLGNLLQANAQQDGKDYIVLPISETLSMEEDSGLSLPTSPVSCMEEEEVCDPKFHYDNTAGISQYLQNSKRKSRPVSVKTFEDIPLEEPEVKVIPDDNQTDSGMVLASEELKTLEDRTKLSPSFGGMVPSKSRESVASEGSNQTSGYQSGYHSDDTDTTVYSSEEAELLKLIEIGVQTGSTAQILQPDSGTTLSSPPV
Method: HTRF®KinEASE™-TK kit (Cat.62TKOPEC, Cisbio);
VEGFR2 (Cat: k2643, Sigma);
2.1 Preparation of VEGFR2 Kinase Reagent
1× kinase buffer: 1 mL 1× kinase buffer contained 200 μL 5× kinase buffer (Invitrogen), 5 μL, 1M MgCl2, 1 μL 1M DTT, 1 μL 1M MnCl2, and 793 μL ddH2O;
5×TK substrate-biotin and ATP working fluid: as the concentrations of TK substrate-biotin and ATP, please refer to Table 1. TK substrate-biotin and ATP were diluted with 1× kinase buffer to 5 folds of the reaction concentrations;
5× kinase working fluid: as the concentration of VEGFR2 kinase, please refer to Table 1. 5× kinase working fluid was prepared with 1× Kinase buffer;
4× Sa-XL665 working fluid: as the concentration of Sa-XL665 (Cisbio) in the reaction, please refer to Table 1. The 4× Sa-XL665 working fluid was prepared with assay buffer (Cisbio);
4×TK Ab-cryptate working fluid: TK Ab-Cryptate (Cisbio) was 100-fold diluted with assay buffer (Cisbio), as working fluid;
Experimental Procedure of HTRF KinEASE TK Kit
After all the reagents were prepared as described above, the reagents except for enzymes were equilibrated to room temperature, then adding samples were performed.
TK substrate-biotin, ATP, VEGFR2 kinase and a compound at a certain concentration were reacted in 1× kinase buffer at room temperature for 20 minutes. […] To all the reaction wells, 5 μl 4× Sa-XL665 working fluid and 5 μl 4×TK Ab-cryptate working fluid were added. After reacting at room temperature for 1 hours, fluorescence signal (excited at 320 nm, emitted at 665 nm, 615 nm) was detected by ENVISION detector (Perkinelmer). Based on the full-active well and the background signal well, the inhibition rate for each well was calculated, and the average value was used for duplicate wells. The half maximal inhibitory concentration (IC50) for each test compound was fitted by professional software Graphpad PRISM 5.0.
2.3 Data Analysis Emission light ratio (ER)=665 nm emission signal/615 nm emission signal Inhibition rate=(ERpositive−ERsample)/(ERpositive−ERnegative)*100%
HTRF KinEASE TK kit was used to determine the IC50 value of a compound for kinase VEGFR2. The final concentration of the compound started from 100 μM, and 4-fold gradient dilution was carried out to provide 10 concentrations. Duplicate wells were used for each concentration. The final concentration of DMSO was controlled to 1% in the reaction system.

IC50 (VEGFR2; ATP 5 μM, 20 minutes, room temperature) [µM] | inhibitory activity as fold of that of Comparative compound 2 (VEGFR2; VEGFR2 kinase) [fold] | inhibitory activity as fold of that of Sorafenib (VEGFR2; VEGFR2 kinase) [fold] | IC50 value as fold of that of Comparative compound 2 (VEGFR2; VEGFR2 kinase, ratio of IC50) [fold] | IC50 value as fold of that of Sorafenib (free base) (VEGFR2; VEGFR2 kinase, ratio of IC50) [fold] | SMILES | Tumor weight Mean ± S.E ([1]; 20 mg/kg po) [g] | Tumor-inhibiting rate ([1]; 20 mg/kg po) [%] | Tumor weight Mean ± S.E ([1]; 60 mg/kg po) [g] | Tumor-inhibiting rate ([1]; 60 mg/kg po) [%] | Tumor weight (D27) Mean ± S.E (HCT116 xenograft; 10 mg/kg po) [g] | TGI (HCT116 xenograft; 10 mg/kg po) [%] | Tumor weight (D27) Mean ± S.E (HCT116 xenograft; 20 mg/kg po) [g] | TGI (HCT116 xenograft; 20 mg/kg po) [%] | Tumor weight (D27) Mean ± S.E (HCT116 xenograft; 40 mg/kg po) [g] | TGI (HCT116 xenograft; 40 mg/kg po) [%] | TGI (HCT116 xenograft; 40 mg/kg po, listed as FD-2013018) [%]
– | – | – | – | – | CNC(=O)c1cc(Oc2ccc(NC(=O)Nc3ccc(Cl)c(C(F)(F)F)c3)cc2)ccn1 [Comparative example 1, Sorafenib, reference compound] | 0.5239 ± 0.1038 | 44.01 | 0.4407 ± 0.0581 | 52.89 | – | – | – | – | – | – | –
0.0555 | 3.4 | 1.61 | 0.34 | 0.62 | Cn1cc(-c2nccc(Oc3ccc(NC(=O)Nc4ccc(Cl)c(C(F)(F)F)c4)cc3)c2Cl)cn1 [Example 2, 1-(4-chloro-3-(trifluoromethyl)phenyl)-3-(4-(3-chloro-2-(1-methyl-pyrazol-4-yl)-pyridin-4-yl-oxy)phenyl)urea] | – | – | – | – | 0.153 ± 0.078 | 84.1 | 0.104 ± 0.035 | 89.1 | 0.077 ± 0.043 | 92 | 92.0
